Assay results published in publication PMC3556224 (Journal of natural products, 2013).

Tests used:
hAChE = hAChE (Homo sapiens, UniProt P22303); experiment: Inhibition of hAChE with acetylthiocholine as substrate; assay type: biochemical
hBChE = hBChE (Homo sapiens, UniProt P06276); experiment: Inhibition of hBChE with butyrylthiocholine as substrate; assay type: biochemical
hiCE = biological target: T1, hiCE (Homo sapiens, UniProt O00748); assay type: cell-based; conditions: 4-MUA, U373MG cells
T1 sequence (O00748 27-559): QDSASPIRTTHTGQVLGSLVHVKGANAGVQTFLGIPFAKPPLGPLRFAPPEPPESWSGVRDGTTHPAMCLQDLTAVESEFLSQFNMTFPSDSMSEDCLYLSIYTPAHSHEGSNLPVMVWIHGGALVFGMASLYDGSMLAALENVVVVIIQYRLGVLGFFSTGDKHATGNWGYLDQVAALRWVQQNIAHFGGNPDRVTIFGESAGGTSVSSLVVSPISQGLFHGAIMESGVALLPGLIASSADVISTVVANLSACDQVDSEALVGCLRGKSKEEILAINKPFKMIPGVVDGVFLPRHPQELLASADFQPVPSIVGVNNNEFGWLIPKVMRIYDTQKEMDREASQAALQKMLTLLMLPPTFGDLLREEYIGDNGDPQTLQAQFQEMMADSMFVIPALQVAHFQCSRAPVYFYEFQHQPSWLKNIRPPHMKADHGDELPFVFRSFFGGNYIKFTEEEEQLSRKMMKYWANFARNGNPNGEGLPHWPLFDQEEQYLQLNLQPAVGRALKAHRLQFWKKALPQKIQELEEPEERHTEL

Chain of hBChE (P06276 29-602): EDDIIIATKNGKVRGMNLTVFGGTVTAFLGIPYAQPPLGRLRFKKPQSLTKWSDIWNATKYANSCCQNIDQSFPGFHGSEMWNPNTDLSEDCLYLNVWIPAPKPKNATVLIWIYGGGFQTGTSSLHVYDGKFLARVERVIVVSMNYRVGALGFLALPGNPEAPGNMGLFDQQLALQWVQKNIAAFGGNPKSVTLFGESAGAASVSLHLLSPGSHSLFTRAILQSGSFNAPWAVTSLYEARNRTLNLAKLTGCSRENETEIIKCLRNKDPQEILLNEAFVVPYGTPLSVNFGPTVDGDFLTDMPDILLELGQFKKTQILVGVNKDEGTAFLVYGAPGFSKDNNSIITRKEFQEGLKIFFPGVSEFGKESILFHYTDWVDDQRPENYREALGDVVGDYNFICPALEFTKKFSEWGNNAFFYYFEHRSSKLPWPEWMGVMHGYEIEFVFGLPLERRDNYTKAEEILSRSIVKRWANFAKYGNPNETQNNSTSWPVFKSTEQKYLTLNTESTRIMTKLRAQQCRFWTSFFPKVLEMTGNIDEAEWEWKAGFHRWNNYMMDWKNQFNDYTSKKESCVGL
Chain of hAChE (P22303 32-614): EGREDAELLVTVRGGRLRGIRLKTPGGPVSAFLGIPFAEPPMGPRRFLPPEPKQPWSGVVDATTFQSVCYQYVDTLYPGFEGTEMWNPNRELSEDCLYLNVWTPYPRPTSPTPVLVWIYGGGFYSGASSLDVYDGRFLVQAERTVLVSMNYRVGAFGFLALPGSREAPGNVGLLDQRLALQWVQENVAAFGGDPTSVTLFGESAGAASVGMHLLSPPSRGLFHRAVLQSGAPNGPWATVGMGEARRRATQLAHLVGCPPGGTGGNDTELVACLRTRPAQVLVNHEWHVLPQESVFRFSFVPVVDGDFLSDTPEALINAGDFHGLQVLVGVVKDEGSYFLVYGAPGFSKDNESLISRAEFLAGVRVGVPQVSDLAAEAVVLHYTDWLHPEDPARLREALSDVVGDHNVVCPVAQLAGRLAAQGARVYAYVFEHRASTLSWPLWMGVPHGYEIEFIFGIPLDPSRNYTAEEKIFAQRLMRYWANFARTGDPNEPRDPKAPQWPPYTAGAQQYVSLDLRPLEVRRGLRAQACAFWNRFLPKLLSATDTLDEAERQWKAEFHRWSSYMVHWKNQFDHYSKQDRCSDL

Row | SMILES | inhibition of hAChE (in words) (hAChE) | Ki (hBChE) [µM] | inhibition of hBChE (in words) (hBChE) | intracellular inhibition of hiCE (in words) (hiCE)
1 | Cc1coc2c1C(=O)C(=O)c1c-2ccc2c1CCCC2(C)C [compound 7, 1,6,6-trimethyl-6,7,8,9-tetrahydrophenanthro[1,2-b] furan-10,11-dione] | did not inhibit | > 100 | did not inhibit | 
2 | Cc1coc2c1C(=O)C(=O)c1c-2ccc2c(C)cccc12 [compound 21, 1,6-dimethyl-phenanthro [1,2-b] furan-10,11-dione] |  | > 100 |  | 
3 | Cc1cccc2c3c(ccc12)C1=C(C(=O)C3=O)[C@@H](C)CO1 [compound 22, 1,2-dihydro-1,6-dimethyl-(1R)-phenanthro [1,2-b] uran-10,11-dione] | modest activity | > 100 | not BChE | 
4 | C[C@H]1COC2=C1C(=O)C(=O)c1c2ccc2c1CCCC2(C)C [compound 24, 1,2,6,7,8,9-hexahydro-1,6,6-trimethyl-(1R)-phenanthro [1,2-b] furan-10,11-dione] | modest activity |  | not BChE | 
5 | Cc1c(S(=O)(=O)[O-])oc2c1C(=O)C(=O)c1c-2ccc2c1CCCC2(C)C.[Na+] [compound 25, 6,7,8,9,10,11-hexahydro-1,6,6-trimethyl-10,11-dioxo-phenanthro[1,2-b] furan-2-sulfonic acid, sodium salt] |  |  |  | failed to inhibit
